Measured values from patent US11191811B2, “Osteocalcin as a treatment for frailty associated with aging” (THE TRUSTEES OF COLUMBIA UNIVERSITY IN THE CITY OF NEW YORK, priority 2014, dated 2021).

What was measured:
[1] = test system: wild type mice injected with gold thioglucose (GTG); assay: GTG-induced obesity; assay type: in vivo, mouse
Description: FIG. 5. Osteocalcin subcutaneous infusion alleviates GTG-induced obesity in wild-type mice. Wild-type mice were injected with gold thioglucose (GTG) or vehicle to induce hyperphagia and obesity. Two weeks later they were implanted with subcutaneous osmotic pumps infusing […] of recombinant osteocalcin or PBS for 28 days before. Body weight gain was recorded thereafter at indicated days.
For GTG-induced obesity, male and female 4 week-old wild-type (WT) and Osteocalcin^−/− mice (n=10 per group) were injected with […] of GTG
The effect of uncarboxylated osteocalcin on GTG-induced obesity was investigated (FIG. 5). Wild type mice were injected with gold thioglucose (GTG) to induce hyperphagia and obesity or vehicle. Two weeks later they were implanted with subcutaneous osmotic pumps infusing 1 ng/hr of recombinant uncarboxylated osteocalcin or PBS for 28 days. […] At 28 days, body weight was reduced by about 15% with uncarboxylated osteocalcin treatment.

Gprc6a−/− myotubes = assay: Gene expression (qPCR) in myotubes treated with Ocn; assay type: cell-based, mouse
Description: Serum osteocalcin, PINP, CTX, and insulin levels were measured using ELISA assays. Blood glucose level was measured using an Accu-Check glucometer. Urine 3-MHT was measured as previously described (Aranibar et al., 2011, Anal. Biochem. 410:84-91). Determination of cAMP accumulation was performed using a commercial kit (R&D). For gene expression, 1 μg of total RNA was reverse transcribed into cDNA. qPCR analyses were performed using a SYBER green master mix (Applied Biosciences) and a CFX-Connect real time PCR (Bio-Rad). Relative expression levels of each gene were normalized to that of Hprt or Gapdh. For in situ hybridization, muscle was frozen in liquid N2-cooled methylbutane. Samples were sectioned at 10 μm using a cryostat. In situ hybridization was performed with a DIG-labeled riboprobe as previously described (Oury et al., 2011, Cell 144:796-809).
Culture of skeletal muscle myoblasts from 7 day-old mice was performed as described (Gharaibeh et al., 2008, Nature Protocols 3:1501-1509). Myoblasts were differentiated into myotubes for 3-4 days in a medium containing 5% horse serum. Muscle fibers were isolated from flexor digitorum brevis muscle. Muscles were dissected with DMEM 2% collagenase for 2 hours at 37° C., in a 5% CO2 incubator. Muscle fibers were disaggregated from the tissue using a wide bore pipet and plated in matrigel-coated plates at approximately 50% confluence. […]

[2] = Crossing of the blood-brain barrier; settings: stated without test description
wild type mice = assay: Body weight and gonadal fat pad mass during subcutaneous infusion; assay type: in vivo, mouse
Description: FIG. 4. Osteocalcin subcutaneous infusion decreases fat mass in wild-type mice. (A) Indicated doses of recombinant osteocalcin or PBS were infused subcutaneously for 28 days in wild-type mice. Body weight was recorded at indicated days. (B) Gonadal fat pad mass was measured after 28 days.
In another in vivo experiment, the effect of uncarboxylated osteocalcin on body weight and fat pad mass was monitored (FIG. 4). Wild type mice were infused subcutaneously for 28 days with PBS or uncarboxylated osteocalcin at 0.3, 1 or 3 ng/hour. […] Gonadal fat pad mass, measured after 28 days, decreased by about %18 with 3 ng/hour uncarboxylated osteocalcin treatment.

aged WT mice = assay: Novel Object Recognition test in aged WT mice with ICV infusion; assay type: in vivo, mouse
Description: FIG. 15. Osteocalcin improves hippocampal function in aged wild-type (WT) mice. Constant and novel object investigation in the Novel Object Recognition test in 17 month old mice treated for 1 month with vehicle or 10 ng/hr recombinant uncarboxylated osteocalcin.
ICV pumps delivering (10 ng/hr) recombinant uncarboxylated full-length mouse osteocalcin were implanted in 16 month old WT mice. After an infusion period of one month, the mice were subjected to a modified version of the Novel Object Recognition test, to assay memory and hippocampal function. Briefly, mice were given five 5 minute exposures, with 3 minute resting intervals between exposures, to a novel arena containing two objects. During exposures 1-4, mice were habituated to these two objects, which elicited equal amounts of exploration. In the fifth exposure, one of the objects was replaced with a novel object.

Substance: uncarboxylated osteocalcin: Recombinant uncarboxylated mouse osteocalcin, bacterially produced, purified on glutathione beads and cleaved from the GST subunit by thrombin (YLGASVPSPDPLEPTREQCELNPACDELSDQYGLKTAYKRIYGITI)
- body weight gain ([1]; 1 ng/hr subcutaneous osmotic pumps for 28 days, from 7 days on): significantly reduced
- reduction of body weight ([1]; 1 ng/hr, at 28 days): about 15%
- GTG-induced obesity ([1]; subcutaneous infusion 28 days (FIG. 5 title)): alleviates
- expression of Il6 (Gprc6a−/− myotubes): not
- crossing of the blood-brain barrier [2]: crosses
- crossing of the blood-brain barrier ([2]; listed as undercarboxylated/uncarboxylated osteocalcin): can cross
- decrease of gonadal fat pad mass (wild type mice; 3 ng/hour, after 28 days): ~18%
- body weight (wild type mice; 0.3, 1 or 3 ng/hour subcutaneously for 28 days, highest dose most effective): slightly reduced
- fat mass (wild type mice; subcutaneous infusion 28 days (FIG. 4 title)): decreases
- gonadal fat pad mass (wild type mice; the other doses (0.3, 1 ng/hour), 28 days): did not significantly decrease
- time exploring the novel object (aged WT mice; 10 ng/hr ICV for one month, 16 month old WT mice, versus vehicle alone): less time
- discrimination between the novel and constant objects (aged WT mice; 10 ng/hr ICV for one month, aged mice): able to discriminate
- hippocampal function (aged WT mice; aged WT mice (FIG. 15 title)): improves
